Data published in article PMC9404792, “Synthesis and Antioxidant Properties of HeteroBisNitrones Derived from Benzene Dicarbaldehydes” (Antioxidants, 2022).

Molecular target: T1, soybean lipoxygenase (LOX) (Glycine max, UniProt P08170)
T1 construct: gene LOX1.1
T1 sequence (P08170 1-839): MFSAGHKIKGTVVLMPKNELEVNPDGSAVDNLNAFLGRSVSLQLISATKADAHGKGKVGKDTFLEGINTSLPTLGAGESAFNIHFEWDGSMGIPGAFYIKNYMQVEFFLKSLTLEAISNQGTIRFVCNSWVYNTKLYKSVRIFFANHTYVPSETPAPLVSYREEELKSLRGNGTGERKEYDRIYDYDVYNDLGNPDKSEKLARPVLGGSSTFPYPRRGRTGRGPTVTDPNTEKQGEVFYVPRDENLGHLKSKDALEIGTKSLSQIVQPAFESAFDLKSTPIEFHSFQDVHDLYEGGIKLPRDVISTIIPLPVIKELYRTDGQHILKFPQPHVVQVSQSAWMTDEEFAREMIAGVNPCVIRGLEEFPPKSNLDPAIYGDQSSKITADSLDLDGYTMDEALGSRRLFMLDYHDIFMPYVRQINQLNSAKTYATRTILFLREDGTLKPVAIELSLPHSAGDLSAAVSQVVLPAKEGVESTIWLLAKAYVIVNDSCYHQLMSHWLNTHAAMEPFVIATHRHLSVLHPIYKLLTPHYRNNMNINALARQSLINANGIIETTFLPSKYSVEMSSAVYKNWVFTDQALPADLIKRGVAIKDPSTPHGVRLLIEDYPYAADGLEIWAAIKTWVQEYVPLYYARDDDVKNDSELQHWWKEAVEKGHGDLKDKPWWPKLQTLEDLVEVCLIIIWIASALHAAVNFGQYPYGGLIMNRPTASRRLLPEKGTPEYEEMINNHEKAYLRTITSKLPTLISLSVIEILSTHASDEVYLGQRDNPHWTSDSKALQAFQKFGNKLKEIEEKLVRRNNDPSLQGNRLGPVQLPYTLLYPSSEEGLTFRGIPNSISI
Test: UV assay at […] nm of sodium linoleate conversion to 13-hydroperoxylinoleic acid
Assay type: biochemical
Settings: read-out: LOX Inhibition (% or IC50 [μM])

Structure (SMILES)	IC50
C/[N+]([O-])=C/c1ccccc1/C=[N+](\[O-])Cc1ccccc1 [hBN8, (Z)-N-Benzyl-1-(2-((Z)-(methyloxidoazaneylidene)methyl)phenyl)methanimine oxide]	82.5 µM
CC(C)(C)/[N+]([O-])=C/c1ccccc1/C=[N+](\[O-])Cc1ccccc1 [hBN9, (Z)-N-Benzyl-1-(2-((Z)-(tert-butyloxidoazaneylidene)methyl)phenyl)methanimine oxide]	57.5 µM
